Test systems include 786-0; CAKI-1; COLO 205; HCT-15; HOP-62; Hs-578T; IGROV-1; LOX IMVI; MDA-MB-231; MDA-MB-435; MOLT-4; NCI/ADR-RES; PC-3; RPMI-8226; RXF 393; SF-295; SK-MEL-2; TK-10; UO-31; SK-OV-3.
Holding throughout (experiment): NCI tumour cell line growth inhibition, 48 h

Molecules are shown by their SMILES.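 Values below derive from 48-hour exposures of cells grown in 96-well plates, with endpoints linearly interpolated between the two concentrations bracketing the appropriate inhibition level. At the GI50, growth is halved.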 Activity calls are given as the source filed them. Cut-off read from the data, not from the text of the source: active = GI50 up to about 1.1 µM and inactive = higher. A value given as a limit tells only on which side of the number the result lay.

For `BrC1(c2ccccc2)C[n+]2c(-c3ccccc3)cc(-c3ccccc3)cc2-c2ccccc21` (stereo not given), the GI50 with 786-0 was 0.661 µM (active); in the assay on CAKI-1 it was 3.66 µM (inactive); in the assay with COLO 205, 0.157 µM (active); in the assay on HCT-15 it was 2.9 µM; in the assay on HOP-62, 0.611 µM (active); in the assay on Hs-578T, 0.231 µM (active). The GI50 with IGROV-1 is 0.289 µM (active); with LOX IMVI, 0.363 µM (active); in the assay on MDA-MB-231 it was 0.336 µM (active); in the assay with MDA-MB-435, 0.205 µM (active); in the assay with MOLT-4, 0.631 µM (active); with NCI/ADR-RES, 17.9 µM (inactive). Moreover, the GI50 in the assay with PC-3 was 0.346 µM (active); in the assay on RPMI-8226, 0.127 µM (active); in the assay on RXF 393, 0.183 µM (active); with SF-295, 1.03 µM (active); in the assay on SK-MEL-2 it was 0.317 µM (active); with TK-10, 1.73 µM (inactive). In the assay on UO-31, the GI50 is 1.35 µM (inactive).
For `C/C(=N\NC(=S)N1CCC(N2CCCCC2)CC1)c1ccccn1`, the GI50 in the assay on 786-0 was 12.7 µM (inactive); in the assay on CAKI-1 it was 2.07 µM (inactive); in the assay with COLO 205, 2.8 µM (inactive); in the assay with HCT-15, 2.4 µM; in the assay with Hs-578T, 4.72 µM (inactive); with IGROV-1 it was 3.54 µM (inactive). Also, the GI50 with LOX IMVI was 2.82 µM (inactive); with MDA-MB-231, 1.9 µM (inactive); with MDA-MB-435, 2.4 µM (inactive); with MOLT-4, 0.586 µM (active); in the assay on NCI/ADR-RES, 2.26 µM (inactive); with PC-3, 3.56 µM (inactive). For the same compound, the GI50 is 2.2 µM (inactive) with RPMI-8226; 1.36 µM (inactive) in the assay with RXF 393; 2.28 µM (inactive) in the assay on SF-295; > 100 µM (inactive) with SK-MEL-2; 4.93 µM (inactive) in the assay on SK-OV-3; 2.38 µM (inactive) in the assay on TK-10. Moreover, the GI50 in the assay with UO-31 is 1.9 µM (inactive).
Consider `CNC(C#N)c1ccc(OC)cc1` (stereo not given), for which the GI50 was > 100 µM (inactive) in the assay on 786-0; > 100 µM (inactive) in the assay on CAKI-1; 71.3 µM (inactive) in the assay with COLO 205; over 100 µM with HCT-15; > 100 µM (inactive) with Hs-578T; > 100 µM (inactive) in the assay on IGROV-1. Moreover, the GI50 with LOX IMVI is > 100 µM (inactive); in the assay on MDA-MB-231, > 100 µM (inactive); in the assay on MDA-MB-435, 33.6 µM (inactive); with MOLT-4, 43.7 µM (inactive); in the assay on NCI/ADR-RES, > 100 µM (inactive); in the assay on PC-3 it was 54 µM (inactive). The GI50 in the assay with RXF 393 is > 100 µM (inactive); with SF-295, > 100 µM (inactive); in the assay on SK-MEL-2 it was 26.4 µM (inactive); with SK-OV-3 it was > 100 µM (inactive); in the assay with TK-10, > 100 µM (inactive); in the assay on UO-31 it was > 100 µM (inactive).
As for `Cc1cc(NC(=O)NC(=O)c2ccccc2NC(=O)CN)ccc1Oc1ncc(Br)cn1`, the GI50 is 0.502 µM (active) in the assay on 786-0; 0.0627 µM (active) in the assay with CAKI-1; 0.249 µM (active) in the assay on COLO 205; 1.41 µM in the assay on HCT-15; 0.215 µM (active) in the assay on HOP-62; 0.0308 µM (active) in the assay on Hs-578T. Further, the GI50 is 0.847 µM (active) in the assay with IGROV-1; 0.971 µM (active) in the assay with LOX IMVI; 0.297 µM (active) in the assay with MDA-MB-231; 0.145 µM (active) with MDA-MB-435; 2.5 µM (inactive) in the assay on MOLT-4; 0.13 µM (active) with NCI/ADR-RES. In addition, the GI50 was 0.217 µM (active) in the assay with PC-3; 1.57 µM (inactive) in the assay on RPMI-8226; 0.0439 µM (active) with RXF 393; 0.0661 µM (active) in the assay with SF-295; 0.437 µM (active) in the assay with SK-MEL-2; 9.62 µM (inactive) in the assay on TK-10. In addition, in the assay with UO-31, the GI50 was 0.246 µM (active).
Turning to `N=c1oc2ccc(Cl)cc2cc1C(N)=O`, the GI50 with 786-0 is 24.8 µM (inactive); in the assay with CAKI-1, 34.1 µM (inactive); in the assay with COLO 205, 36.6 µM (inactive); in the assay with HCT-15, 29.4 µM; with Hs-578T it was 18.5 µM (inactive); in the assay on IGROV-1, 21.4 µM (inactive). Further, the GI50 in the assay on LOX IMVI was 31.8 µM (inactive); with MDA-MB-231, 24.4 µM (inactive); in the assay on MDA-MB-435, 31.7 µM (inactive); with MOLT-4, > 100 µM (inactive); with NCI/ADR-RES it was 34.4 µM (inactive); in the assay on PC-3, 17.2 µM (inactive). Besides, the GI50 in the assay with RPMI-8226 is 66.4 µM (inactive); with RXF 393 it was 29.6 µM (inactive); with SK-MEL-2, 13.3 µM (inactive); in the assay on SK-OV-3 it was > 100 µM (inactive).
Regarding `O=c1[nH]c(=O)n(C2CC(O)C(CO)O2)cc1OCCCc1ccccc1` (stereo not given), the GI50 with 786-0 is > 100 µM (inactive); with CAKI-1 it was > 100 µM (inactive); in the assay on COLO 205, > 100 µM (inactive); in the assay with HCT-15, over 100 µM; in the assay with HOP-62, > 100 µM (inactive); with Hs-578T, > 100 µM (inactive). Further, the GI50 in the assay on IGROV-1, in the assay with LOX IMVI, in the assay on MDA-MB-231, in the assay with MDA-MB-435, in the assay on MOLT-4 and with NCI/ADR-RES was > 100 µM (inactive) in each case. Moreover, the GI50 in the assay with PC-3, in the assay on RPMI-8226, in the assay on RXF 393, in the assay on SF-295, in the assay with SK-OV-3 and in the assay with TK-10 was > 100 µM (inactive) throughout. Besides, in the assay on UO-31, the GI50 was > 100 µM (inactive).

The values above are taken from ChEMBL document CHEMBL1201862, “PubChem BioAssay data set” (2004).
